ChEMBL document CHEMBL1141342, “Cytotoxic C47-polyacetylene carboxylic acids from a marine sponge Pertrosia sp” (J Nat Prod, 2007)
Values after ≈ are worked out from the molar mass of the structure shown.

Tested on: P388
Assay: Cytotoxicity against mouse P388 cells
Type: functional, cell-based

SMILES | IC50 [µg/mL]
C#C[C@@H](O)/C=C/CCCCCCC#C[C@H](O)C#C/C=C/CC/C=C\CCCC/C=C\CCCCCCCCCCCCCC/C=C\C#CC(=O)O [PETROFORMYNIC ACID B] | 0.4 (≈ 0.574 µM)
C#C[C@@H](O)/C=C/CCCCCCC#C[C@H](O)C#C/C=C/CC/C=C\CCCC/C=C\CCCCCCCCCCCCCCCCC#CC(=O)O [PETROFORMYNIC ACID C] | 0.4 (≈ 0.572 µM)
